Among the data in ChEMBL document CHEMBL1909046, “DrugMatrix in vitro pharmacology data” are IC50 and Ki values, retold here.

In test [1] the target is T1, Muscarinic acetylcholine receptor M2 (Homo sapiens, UniProt P08172). Note: in other assays of this panel Not Active means under 50% inhibition at 10 µM.
T1 sequence (P08172 whole entry): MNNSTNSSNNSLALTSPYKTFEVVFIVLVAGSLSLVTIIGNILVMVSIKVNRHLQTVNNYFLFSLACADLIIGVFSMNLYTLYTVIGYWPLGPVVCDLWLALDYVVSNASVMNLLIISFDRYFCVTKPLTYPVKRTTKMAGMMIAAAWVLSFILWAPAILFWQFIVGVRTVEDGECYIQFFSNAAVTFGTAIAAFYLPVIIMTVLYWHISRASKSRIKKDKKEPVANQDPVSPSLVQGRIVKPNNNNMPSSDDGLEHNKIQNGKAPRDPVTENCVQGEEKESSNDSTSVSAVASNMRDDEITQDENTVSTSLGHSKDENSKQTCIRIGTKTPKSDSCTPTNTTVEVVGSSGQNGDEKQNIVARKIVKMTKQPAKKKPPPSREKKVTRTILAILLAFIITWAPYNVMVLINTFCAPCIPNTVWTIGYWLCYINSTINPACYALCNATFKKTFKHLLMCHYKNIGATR
In kind it is cell membranes, CHO-K1, Membrane. The settings on record: cho-k1.

The target of the next test is Glycine receptor (Rattus norvegicus, UniProt P22771+P24524+P07727+P20781). In kind it is cell membranes, Wistar, Spinal cord, Membrane. Note: in other assays of this panel Not Active means under 50% inhibition at 10 µM.
Test [2] is described as follows: DRUGMATRIX: Glutamate, NMDA, Agonism radioligand binding (ligand: [3H] CGP-39653). The settings on record: Not Active = under 50% inhibition at 10 µM. In kind it is cell membranes, Rattus norvegicus, Wistar, Cerebral cortex, Membrane.
A short description of test [3]: DRUGMATRIX: ATPase, Na+/K+ enzyme inhibition (substrate: ATP). Format: tissue-based, Sus scrofa, Heart. The settings on record: Not Active = under 50% inhibition at 10 µM.
A short description of test [4]: DRUGMATRIX: Sigma2 radioligand binding (ligand: [3H] Ifenprodil). Format: cell membranes, Rattus norvegicus, Wistar, Brain, Membrane. The settings on record: Not Active = under 50% inhibition at 10 µM.
Test [5] can be described thus: DRUGMATRIX: GABAA, Flunitrazepam, Central radioligand binding (ligand: [3H] Flunitrazepam). Format: cell membranes, Rattus norvegicus, Wistar, Brain, Membrane. The note with it: Not Active = under 50% inhibition at 10 µM.
Test [6] concerns the target T2, Cholecystokinin receptor type A (Homo sapiens, UniProt P32238). Note: in other assays of this panel Not Active means under 50% inhibition at 10 µM.
T2 sequence (P32238 whole entry): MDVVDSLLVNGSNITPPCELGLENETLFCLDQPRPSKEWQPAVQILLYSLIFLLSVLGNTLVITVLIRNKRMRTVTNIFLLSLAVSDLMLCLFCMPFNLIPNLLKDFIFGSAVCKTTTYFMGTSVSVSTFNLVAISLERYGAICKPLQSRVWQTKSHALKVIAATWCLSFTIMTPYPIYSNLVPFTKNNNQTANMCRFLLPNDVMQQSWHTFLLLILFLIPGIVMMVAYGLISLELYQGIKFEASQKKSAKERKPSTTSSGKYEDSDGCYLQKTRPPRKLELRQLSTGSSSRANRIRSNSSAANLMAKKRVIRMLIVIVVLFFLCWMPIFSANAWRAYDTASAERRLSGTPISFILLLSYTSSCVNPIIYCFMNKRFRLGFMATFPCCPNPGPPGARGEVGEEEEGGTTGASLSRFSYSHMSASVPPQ
Format: cell membranes, Membrane. The settings on record: 1321-n1.

For `CCCC(=O)Nc1ccc(OCC(O)CNC(C)C)c(C(C)=O)c1` (configuration not stated) [ACEBUTOLOL], the IC50 result (in test [1]; against Glycine receptor; in test [2]; in test [3]; in test [4]; in test [5]) was “Not Active” throughout. Besides, the half-inhibitory concentration (IC50) result in test [6] was “Not Active”. In addition, the Ki entry in test [2], in test [3], in test [4] and in test [5] was “Not Active” throughout.
`CC(=O)Nc1ccc(O)cc1` [ACETAMINOPHEN]: the IC50 entry (in test [1]; against Glycine receptor; in test [2]; in test [3]; in test [4]; in test [5]) was “Not Active” throughout. The concentration for half-maximal inhibition (IC50) entry in test [6] is “Not Active”. Also, the Ki result in test [2], in test [3], in test [4] and in test [5] was “Not Active” throughout.
Take `COc1cc2c(c3oc(=O)c4c(c13)CCC4=O)[C@@H]1C=CO[C@@H]1O2` [AFLATOXIN]: the IC50 entry (in test [1]; on Glycine receptor; in test [2]; in test [3]; in test [4]; in test [5]) was “Not Active” in each case. For the same compound, in test [6], the concentration for half-maximal inhibition (IC50) result is reported as “Not Active”. Besides, the Ki entry (in test [1]; at Glycine receptor; in test [2]; in test [3]; in test [4]; in test [5]) was “Not Active” throughout. The inhibitory constant (Ki) entry in test [6] was “Not Active”.
For `N=C(N)NC(=O)c1nc(Cl)c(N)nc1N` [AMILORIDE], the IC50 entry (in test [1]; on Glycine receptor; in test [2]; in test [3]; in test [4]; in test [5]) was “Not Active” in each case. Further, the IC50 result in test [6] was “Not Active”. The Ki entry in test [2], in test [3], in test [4] and in test [5] was “Not Active” in each case.
For `Cc1cc(=O)n(-c2ccccc2)n1C` [ANTIPYRINE], the 50% inhibitory concentration (IC50) entry (in test [1]; at Glycine receptor; in test [2]; in test [3]; in test [4]; in test [5]) was “Not Active” each time. Besides, the IC50 result in test [6] is given as “Not Active”. Besides, the Ki result in test [2], in test [3], in test [4] and in test [5] was “Not Active” in each case.
For `CN1C(=O)COc2c(C(=O)NC3CN4CCC3CC4)cc(Cl)cc21` (configuration not stated) [AZASETRON], the IC50 result (in test [1]; against Glycine receptor; in test [2]; in test [3]; in test [4]; in test [5]) was “Not Active” each time. Further, the IC50 entry in test [6] is on record as “Not Active”. Also, the Ki result in test [2], in test [3], in test [4] and in test [5] was “Not Active” throughout.
For the compound `C[C@H]1C[C@H]2[C@@H]3CCC4=CC(=O)C=C[C@]4(C)[C@@]3(Cl)[C@@H](O)C[C@]2(C)[C@@]1(O)C(=O)CO` [BECLOMETHASONE], the IC50 result (in test [1]; at Glycine receptor; in test [2]; in test [3]; in test [4]; in test [5]) was “Not Active” in each case. Moreover, the IC50 entry in test [6] is “Not Active”. The Ki entry in test [2], in test [3], in test [4] and in test [5] was “Not Active” in each case.
As to `CCOC(=O)[C@H](CCc1ccccc1)N[C@H]1CCc2ccccc2N(CC(=O)O)C1=O` [BENAZEPRIL], the IC50 result (in test [1]; against Glycine receptor; in test [2]; in test [3]; in test [4]; in test [5]) was “Not Active” each time. The IC50 entry in test [6] was “Not Active”. For the same compound, the inhibition constant (Ki) entry in test [2], in test [3], in test [4] and in test [5] was “Not Active” in each case.
For `Nc1c(CC(=O)O)cccc1C(=O)c1ccc(Br)cc1` [BROMFENAC], the IC50 result (in test [1]; at Glycine receptor; in test [2]; in test [3]; in test [4]; in test [5]) was “Not Active” in each case. Besides, the IC50 result in test [6] is listed as “Not Active”. The Ki entry in test [2], in test [3], in test [4] and in test [5] was “Not Active” each time.
Consider `CCCCN1CCCCC1C(=O)Nc1c(C)cccc1C.Cl` (configuration not stated) [BUPIVACAINE HYDROCHLORIDE], for which the IC50 result (in test [1]; against Glycine receptor; in test [2]; in test [3]; in test [4]; in test [5]) was “Not Active” each time. Further, the half-inhibitory concentration (IC50) result in test [6] is “Not Active”. The Ki result in test [2], in test [3], in test [4] and in test [5] was “Not Active” in each case.
As for `O=C1CC2(CCCC2)CC(=O)N1CCCCN1CCN(c2ncccn2)CC1` [BUSPIRONE], the IC50 result is “Not Active” in test [1]; “Not Active” against Glycine receptor; “Not Active” in test [2]; “Not Active” in test [3]; 3380 nM in test [4] (read-out: IC50); “Not Active” in test [5]. Moreover, the 50% inhibitory concentration (IC50) entry in test [6] was “Not Active”. Besides, the Ki result is “Not Active” in test [2], “Not Active” in test [3], 2080 nM in test [4] (read-out: Ki) and “Not Active” in test [5].
On to `C[C@@]12C(=O)OC(=O)[C@]1(C)[C@H]1CC[C@@H]2O1` [CANTHARIDIN], for which the IC50 entry (in test [1]; against Glycine receptor; in test [2]; in test [3]; in test [4]; in test [5]) was “Not Active” throughout. The IC50 result in test [6] is on record as “Not Active”. The Ki entry in test [2], in test [3], in test [4] and in test [5] was “Not Active” each time.
`O=NN(CCCl)C(=O)NCCCl` [CARMUSTINE]: the IC50 result (in test [1]; on Glycine receptor; in test [2]; in test [3]; in test [4]; in test [5]) was “Not Active” in each case. Moreover, the IC50 result in test [6] is listed as “Not Active”. Besides, the Ki entry in test [2], in test [3], in test [4] and in test [5] was “Not Active” throughout.
For the compound `CC1=C(C(=O)O)N2C(=O)[C@@H](NC(=O)[C@H](N)c3ccccc3)[C@H]2SC1` [CEPHALEXIN ANHYDROUS], the half-inhibitory concentration (IC50) entry (in test [1]; against Glycine receptor; in test [2]; in test [3]; in test [4]; in test [5]) was “Not Active” each time. Moreover, in test [6], the IC50 result is reported as “Not Active”. The Ki entry in test [2], in test [3], in test [4] and in test [5] was “Not Active” throughout.

In general, IC50 refers to the point on the concentration scale where inhibition reaches its midpoint. As usually defined, the Ki is the dissociation constant of the complex between target and ligand, obtained from inhibition or displacement.
